Source: patent US4490291A, “Nonapeptide amides” (Takeda Chemical Industries, Ltd., priority 1973, dated 1984)
Non-standard residues stand in square brackets, D forms with d. Residues, ends and D or L forms follow the SMILES beside them. pGlu = O=C1CC[C@@H](C(=O)O)N1

Tested on: Sprague-Dawley rats (4-day cycling female)
Assay: Ovulation-inducing activity in rats, ED50 compared with LH-RH
Assay type: in vivo
Settings: product of process (III) compared with product of process (I) of Example 5(c)
Method: Ovulation-inducing activity is determined in Sprague-Dawley rats (4-day cycling female) in which the injection of the compound was made subcutaneously at 14:30 on the day of diestrous, and the ovulated ova in the ampilla of the oviduct were examined on the morning of the next day. The results (ED50) were compared with that (ED50) of LH-RH itself. The assay results on the object compounds are as follows.

Compound	ED50 value of ovulation inducing activity
CCNC(=O)[C@@H]1CCCN1C(=O)[C@H](CCCNC(=N)N)NC(=O)[C@H](CC(C)C)NC(=O)[C@@H](C)NC(=O)[C@H](Cc1ccccc1)NC(=O)[C@H](CO)NC(=O)[C@H](Cc1c[nH]c2ccccc12)NC(=O)[C@H](Cc1c[nH]cn1)NC(=O)[C@@H]1CCC(=O)N1 [His Phe Leu ethyl, (Pyr)Glu--His--Trp--Ser--Phe--(D)--Ala--Leu--Arg--Pro--NH--CH2 --CH3] ([pGlu]HWSF[dA]LRP-NHEt)	identical

Same assay, conditions: subcutaneous injection at 14:30 on the day of diestrous; ovulated ova in oviduct examined next morning; natural LH-RH control = 100%

Compound	Relative ovulation-inducing activity (ED50 compared with that of LH-RH itself)
CCNC(=O)[C@@H]1CCCN1C(=O)[C@H](CCCNC(=N)N)NC(=O)[C@H](CC(C)C)NC(=O)[C@@H](C)NC(=O)[C@H](Cc1ccccc1)NC(=O)[C@H](CO)NC(=O)[C@H](Cc1c[nH]c2ccccc12)NC(=O)[C@H](Cc1c[nH]cn1)NC(=O)[C@@H]1CCC(=O)N1 [His Phe Leu ethyl, (Pyr)Glu--His--Trp--Ser--Phe--(D)--Ala--Leu--Arg--Pro--NH--CH2 --CH3] ([pGlu]HWSF[dA]LRP-NHEt)	5,810%
CCCC[C@H](NC(=O)[C@@H](C)NC(=O)[C@H](Cc1ccc(O)cc1)NC(=O)[C@H](CO)NC(=O)[C@H](Cc1c[nH]c2ccccc12)NC(=O)[C@H](Cc1c[nH]cn1)NC(=O)[C@@H]1CCC(=O)N1)C(=O)N[C@@H](CCCNC(=N)N)C(=O)N1CCC[C@H]1C(=O)NCC [His Tyr Nle ethyl, (Pyr)Glu--His--Trp--Ser--Tyr--(D)--Ala--Nle--Arg--Pro--NHCH2 CH3]	4,800%
CCNC(=O)[C@@H]1CCCN1C(=O)[C@H](CCCNC(=N)N)NC(=O)[C@H](CC(C)C)NC(=O)[C@@H](C)NC(=O)[C@H](Cc1ccc(O)cc1)NC(=O)[C@H](CO)NC(=O)[C@H](Cc1c[nH]c2ccccc12)NC(=O)[C@H](Cc1c[nH]cn1)NC(=O)[C@@H]1CCC(=O)N1 [His Tyr Leu ethyl, (Pyr)Glu--His--Trp--Ser--Tyr--(D)--Ala--Leu--Arg--Pro--NH--CH2 --CH3]	6,100%
CCNC(=O)[C@@H]1CCCN1C(=O)[C@H](CCCNC(=N)N)NC(=O)[C@@H](NC(=O)[C@@H](C)NC(=O)[C@H](Cc1ccccc1)NC(=O)[C@H](CO)NC(=O)[C@H](Cc1c[nH]c2ccccc12)NC(=O)[C@H](Cc1c[nH]cn1)NC(=O)[C@@H]1CCC(=O)N1)[C@@H](C)CC [His Phe Ile ethyl, (Pyr)Glu--His--Trp--Ser--Phe--(D)--Ala--Ile--Arg--Pro--NHCH2 CH3] ([pGlu]HWSF[dA]IRP-NHEt)	3,200%
CCNC(=O)[C@@H]1CCCN1C(=O)[C@H](CCCNC(=N)N)NC(=O)[C@H](CC(C)C)NC(=O)[C@@H](C)NC(=O)[C@H](Cc1ccc(O)cc1)NC(=O)[C@H](CO)NC(=O)[C@H](Cc1c[nH]c2ccccc12)NC(=O)[C@H](Cc1ccc(O)cc1)NC(=O)[C@@H]1CCC(=O)N1 [Tyr Tyr Leu ethyl, (Pyr)Glu--Tyr--Trp--Ser--Tyr--(D)--Ala--Leu--Arg--Pro--NHCH2 CH3] ([pGlu]YWSY[dA]LRP-NHEt)	2,010%
CC(C)C[C@H](NC(=O)CNC(=O)[C@H](Cc1ccc(O)cc1)NC(=O)[C@H](CO)NC(=O)[C@H](Cc1c[nH]c2ccccc12)NC(=O)[C@H](Cc1c[nH]cn1)NC(=O)[C@@H]1CCC(=O)N1)C(=O)N[C@@H](CCCNC(=N)N)C(=O)N1CCC[C@H]1C(=O)NCC(N)=O [natural LH--RH, (Pyr)Glu-His-Trp-Ser-Tyr-Gly-Leu-Arg-Pro-Gly-NH2, reference compound]	100%
(Pyr)Glu--p--NH2 --Phe--Trp--Ser--Tyr--(D)--Ala--Leu--Arg--Pro--NH--CH2 --CH3 [p-NH2 --Phe Tyr Leu ethyl]	2,150%
